The values that follow come from BindingDB's records for doi:10.1021/jm00350a005 (1982).

By Kd is commonly meant the free concentration of one partner at which half of the binding sites on the other are occupied at equilibrium, for simple one-to-one binding. The term IC50 denotes the midpoint of a concentration-inhibition curve. A high value points to weaker potency in that assay.

Experiment [1] addresses 5-hydroxytryptamine receptor 1A/1B/1D/1E/1F/2A/2B/2C/3A/3B/3C/3D/3E/4/5A/6/7. The experiment is described as follows: Ability to displace [3H]5-HT binding to 5-hydroxytryptamine receptor using 1 uM LSD as masking ligand, activity is expressed as Kd.
For experiment [2] the target is unchanged. The experiment is described as follows: Ability to displace [3H]5-HT binding to 5-hydroxytryptamine receptor site using 1 uM LSD as masking ligand, […].
The target is the same in experiment [3]. Description: Ability to displace [3H]5-HT binding from 5-hydroxytryptamine receptor site using 1 uM LSD as masking ligand.
Experiment [4] shares this target. The experiment is described as follows: Ability to displace [3H]5-HT binding to 5-hydroxytryptamine receptor site using 1 uM LSD as masking ligand.

`CSc1ccc2[nH]cc(CCN(C)C)c2c1` had a Kd in experiment [1] of 0.043 µM.
Take `CN(C)CCc1c[nH]c2cc3c(cc12)OCO3`: the Kd in experiment [2] came to 8.4 µM.
In the case of `CC(C)N(CCc1c[nH]c2cc3c(cc12)OCO3)C(C)C`, the IC50 in experiment [3] worked out at 933 µM.
`CSc1cccc2[nH]cc(CCN(C)C)c12` displayed a half-maximal inhibitory concentration (IC50) in experiment [4] of 151 µM. The affinity in experiment [2], expressed as Kd, was 8.4 µM.
